Measurements reported in patent publication US3985747A, “Crystalline sesquihydrate of 7-[D-α-amino-α-(p-hydroxyphenyl)acetamido]-3-(1,2,3-triazol- 5-ylthiomethyl)-3-cephem-4-carboxylic acid” (priority 1974, dated 1976).
≈ marks a conversion by molar mass, not a printed value. Counter-ions that a name gives are not always drawn. Like-named read-outs stand apart in the source and are kept apart here.

Legend:
Water solubility = assay type: physicochemical
Ent. cloacae A9656 = experiment: M.I.C. by Tube Dilution; settings: Enterobacter cloacae
S. aureus BX1633-2 A9606 = experiment: M.I.C. by Tube Dilution; assay type: cell-based; settings: Staphylococcus aureus, overnight 37° C.
[1] = test system: S. aureus(methicillin resist) A15097; experiment: microbe, parasite or virus in culture; settings: Staphylococcus aureus
E. coli Juhl A15119 = experiment: microbe, parasite or virus in culture; settings: Escherichia coli, JUHLA15119
in vivo [2] = experiment: in vivo; design: species or system mice; settings: mouse, im, 10 mg/kg
Description: Mouse Blood Levels after IM Administration of 10 mg./kg. Dose of BL-S640

[3] = Loss of bioactivity of the solid on storage at elevated temperatures; assay type: physicochemical; settings: for Loss of bioactivity (potency) on storage: 43800 min
physchem = assay type: physicochemical; settings: for Bioassay: solution pH 7.1, room temperature
Description: The above components are shaken to form an amber solution having a pH = 7.1. The solution was allowed to stand at room temperature and periodically assayed to determine stability.

K. pneumoniae A15130 = experiment: microbe, parasite or virus in culture; settings: Klebsiella pneumoniae
in vivo [4] = settings: mouse, blood, po, 100 mg/kg
Ent. cloacae A9659 = experiment: M.I.C. by Tube Dilution; settings: Enterobacter cloacae
D. pneumoniae A9585 = experiment: M.I.C. by Tube Dilution; assay type: cell-based; settings: Streptococcus pneumoniae, at 10^-3 dil'n, + 5% serum, 50% Nutrient Broth - 45% Antibiotic Assay Broth, overnight 37° C.
Sal.enteritidis A9531 = experiment: M.I.C. by Tube Dilution; assay type: cell-based; settings: Salmonella enterica
Pr. morganii A15153 = experiment: M.I.C. by Tube Dilution; settings: Morganella morganii
E. coli A9675 = experiment: M.I.C. by Tube Dilution; assay type: cell-based; settings: Escherichia coli
Ent. cloacae A9657 = experiment: M.I.C. by Tube Dilution; settings: Enterobacter cloacae
Ps. aeruginosa A9843A = experiment: microbe, parasite or virus in culture; settings: Pseudomonas aeruginosa
S. aureus Smith A9537 = experiment: M.I.C. by Tube Dilution; assay type: cell-based; settings: Staphylococcus aureus, overnight 37° C.
Str. Pyogenes A9604 = experiment: M.I.C. by Tube Dilution; assay type: cell-based; settings: Streptococcus pyogenes; at 10^-3 dil'n, + 5% serum; 50% Nutrient Broth - 45% Antibiotic Assay Broth; overnight 37° C.
bacteria = experiment: Antibacterial testing in vitro and in vivo; settings: versus that reported in U.S. application Ser. No. 318,340
[5] = in vivo, po
Pr. mirabilis A9900 = experiment: M.I.C. by Tube Dilution; settings: Proteus mirabilis
Ser. marcescens A20019 = experiment: M.I.C. by Tube Dilution; settings: Serratia marcescens
K. pneumoniae A9977 = experiment: M.I.C. by Tube Dilution; settings: Klebsiella pneumoniae
[6] = pH 7
[7] = Loss of bound water on drying; assay type: physicochemical; settings: very mild conditions (air drying 37° - 45° C., 24 hours)
Description: Upon recovery of the crystalline hydrate from the reaction mixture and cooling to room temperature, the hydrate is ordinarily isolated in the form of the crystalline dihydrate. […] […] […] Upon vacuum drying at 56° C. for 24 hours a crystalline hemihydrate is formed having 0.5 moles of bound water per mole of cephalosporin. All of the above-mentioned novel crystalline hydrates are included within the scope of the present invention.

[8] = at 10^-4 dilution, overnight 37° C., read-out: M.I.C.
[9] = SMITHA9537, at 10^-4 dilution, + 50% serum

In the case of N[C@@H](C(=O)N[C@@H]1C(=O)N2C(C(=O)O)=C(CSc3c[nH]nn3)CS[C@H]12)c1ccc(O)cc1 [BL-S640 Sesquihydrate, 7-[D-α-amino-α-(p-hydroxyphenyl)acetamido]-3-(1,2,3-triazol-5-ylthiomethyl)-3-cephem-4-carboxylic acid sesquihydrate], the solubility (Water solubility; 25° C., read-out: Solubility in water) is reported as ~10000 µg/mL, the Bio-assay (Bio-assay (biopotency)) is reported as 924 µg/mg and the MIC (Ent. cloacae A9656) is reported as > 125 µg/mL. It also gave an MIC (S. aureus BX1633-2 A9606; BX16332A9606, at 10^-2 dil'n) of 2 µg/mL, an MIC (S. aureus BX1633-2 A9606; BX16332A9606, at 10^-3 dil'n, read-out: M.I.C.) of 0.6 µg/mL and an MIC [1] of 8 µg/mL. For the same molecule, the MIC (E. coli Juhl A15119) was 2 µg/mL, the concentration at 5 min (in vivo [2]) was 15000 ng/mL and the concentration at 0.5 h (in vivo [2]) was 13500 ng/mL. For the same molecule, the concentration at 1 h (in vivo [2]) was 9400 ng/mL, the concentration at 1.5 h (in vivo [2]) was 6800 ng/mL and the degraded at 730 h ([3]; solid, 56° C., 1 month, read-out: Loss of bioactivity (potency) on storage) was < 6%. It also gave a degraded at 0.5 h (physchem; aqueous solution, pH 7.1) of 0.8%, a degraded at 1 h (physchem; aqueous solution, pH 7.1) of 5.8% and a degraded at 1.5 h (physchem; aqueous solution, pH 7.1) of 8.3%. The degraded at 2 h (physchem; aqueous solution, pH 7.1) was 15.9%, the degraded at […] (physchem; aqueous solution, pH 7.1) was 0.8% and the Bioassay (physchem; 15 minutes) was 238 mg/mL. The Bioassay (physchem; 30 minutes) was 238 mg/mL, the Bioassay (physchem; 60 minutes) was 226 mg/mL and the Bioassay (physchem; 90 minutes) was 220 mg/mL. It also gave a Bioassay (physchem; 2 hours) of 202 mg/mL, a Bioassay (physchem; time 0) of 240 mg/mL and an MIC (K. pneumoniae A15130) of 2 µg/mL. The concentration at 0.5 h (in vivo [4]) was 46000 ng/mL, the concentration at 1 h (in vivo [4]) was 42500 ng/mL and the concentration at 2 h (in vivo [4]) was 22500 ng/mL. For the same molecule, the concentration at 3.5 h (in vivo [4]) was 11900 ng/mL, the MIC (Ent. cloacae A9659) was 32 µg/mL and the MIC (D. pneumoniae A9585) was 0.02 µg/mL. For the same molecule, the MIC (Sal.enteritidis A9531; [8]) was 0.6 µg/mL, the MIC (Pr. morganii A15153) was 16 µg/mL and the “Biological activity when suspended in water” value was “does not lose biological activity”. For the same molecule, the MIC (E. coli A9675; [8]) was 4 µg/mL, the MIC (Ent. cloacae A9657) was 1 µg/mL and the MIC (Ps. aeruginosa A9843A) was > 125 µg/mL. The MIC (S. aureus Smith A9537; [9]) was 1 µg/mL, the MIC (S. aureus Smith A9537; SMITHA9537, at 10^-4 dilution, read-out: M.I.C.) was 0.3 µg/mL and the MIC (Str. Pyogenes A9604) was 0.02 µg/mL. The “Potency and spectrum of activity” value (bacteria) was “substantially the same potency and spectrum of activity”, the Blood levels [5] was “effective blood levels” and the MIC (Pr. mirabilis A9900) was 0.5 µg/mL. It also gave an MIC (Ser. marcescens A20019) of 125 µg/mL and an MIC (K. pneumoniae A9977) of 1 µg/mL.

For N[C@@H](C(=O)NC1C(=O)N2C(C(=O)O)=C(CSc3cnn[nH]3)CS[C@H]12)c1ccc(O)cc1 (stereo partly drawn) [BL-S640, 7-[D-α-Amino-α-(p-hydroxyphenyl)acetamido]-3-(1,2,3-triazol-5-ylthiomethyl)-3-cephem-4-carboxylic acid], the “Degradation at alkaline pH” value [6] was “degrades very rapidly by loss of the thiol moiety”.

Work on Cc1nnc(SCC2=C(C(=O)O)N3C(=O)[C@@H](NC(=O)Cn4cnnn4)[C@H]3SC2)s1 [Cefazolin, Na salt, sodium cefazolin, reference compound] yielded a concentration at 5 min (in vivo [2]) of 16100 ng/mL, a concentration at 0.5 h (in vivo [2]) of 11100 ng/mL and a concentration at 1 h (in vivo [2]) of 5700 ng/mL. It also gave a concentration at 1.5 h (in vivo [2]) of 2900 ng/mL.

For CC1=C(C(=O)O)N2C(=O)[C@@H](NC(=O)[C@H](N)c3ccccc3)[C@H]2SC1 [Cephalexin, cephalexin, reference compound], the MIC (Ent. cloacae A9656) was > 125 µg/mL, the MIC (S. aureus BX1633-2 A9606; BX16332A9606, at 10^-2 dil'n) was 2 µg/mL (≈ 5.76 µM) and the MIC (S. aureus BX1633-2 A9606; BX16332A9606, at 10^-3 dil'n) was 1 µg/mL (≈ 2.88 µM). The MIC [1] was 32 µg/mL (≈ 92.1 µM), the MIC (E. coli Juhl A15119) was 4 µg/mL (≈ 11.5 µM) and the MIC (K. pneumoniae A15130) was 8 µg/mL (≈ 23 µM). For the same molecule, the MIC (Ent. cloacae A9659) was > 125 µg/mL, the MIC (Sal.enteritidis A9531) was 2 µg/mL (≈ 5.76 µM) and the MIC (Pr. morganii A15153) was > 125 µg/mL. For the same molecule, the MIC (E. coli A9675) was 16 µg/mL (≈ 46.1 µM), the MIC (Ps. aeruginosa A9843A) was > 125 µg/mL and the MIC (S. aureus Smith A9537; [9]) was 2.5 µg/mL. For the same molecule, the MIC (S. aureus Smith A9537; SMITHA9537, at 10^-4 dilution) was 0.6 µg/mL (≈ 1.73 µM), the MIC (Pr. mirabilis A9900) was 2 µg/mL (≈ 5.76 µM) and the MIC (Ser. marcescens A20019) was > 125 µg/mL. The MIC (K. pneumoniae A9977) was 2 µg/mL (≈ 5.76 µM).

In the case of N[C@@H](C(=O)NC1C(=O)N2C(C(=O)O)=C(CSc3cnn[nH]3)CSC12)c1ccc(O)cc1 (stereo partly drawn) [Crystalline Methanol Solvate, 7-[D-α-amino-α-(p-hydroxyphenyl)acetamido]-3-(1,2,3-triazol-5-ylthiomethyl)-3-cephem-4-carboxylic acid methanol solvate], the Bio-assay (Bio-assay (biopotency)) is reported as 850 to 900 µg/mg.

With N[C@@H](C(=O)NC1C(=O)N2C(C(=O)O)=C(CSc3cnn[nH]3)CSC12)c1ccc(O)cc1 (some centres unmarked) [amorphous monohydrate product] the “Loss of bioactivity (potency) on storage” value ([3]; 56° C., 1 month) was 37%.

For N[C@@H](C(=O)NC1C(=O)N2C(C(=O)O)=C(CSc3cnn[nH]3)CS[C@H]12)c1ccc(O)cc1.O.O (stereo partly drawn) [dihydrate, 7-[D-α-Amino-α-(p-hydroxyphenyl)-acetamido]-3-(1,2,3-triazol-5-ylthiomethyl)-3-cephem-4-carboxylic acid dihydrate], the Bio-assay (Bio-assay (biopotency)) was 950 to 1000 µg/mg and the “Loss of bound water” value [7] was “lose one-half molecule of bound water”.

In the case of N[C@@H](C(=O)NC1C(=O)N2C(C(=O)O)=C(CSc3cnn[nH]3)CSC12)c1ccc(O)cc1 (stereo partly drawn) [propylene glycol solvate, 7-[D-α-amino-α-(p-hydroxyphenyl)acetamido]-3-(1,2,3-triazol-5-ylthiomethyl)-3-cephem-4-carboxylic acid propylene glycol solvate], the solubility (Water solubility; 23° C., read-out: Water solubility) is reported as ~10000 µg/mL, the Bio-assay (Bio-assay (biopotency)) is reported as 750 to 790 µg/mg and the “Loss of bioactivity (potency) on storage” value ([3]; 56° C., 1 month) is reported as < 10%. For the same molecule, the degraded at 24 h ([3]; solid, 100° C., 24 hours) was < 6% and the degraded at 48 h ([3]; solid, 100° C., 48 hours) was < 12%.
